Experimental data as given in article PMC6149853, “Species-Specific Inactivation of Triosephosphate Isomerase from Trypanosoma brucei: Kinetic and Molecular Dynamics Studies” (Molecules : A Journal of Synthetic Chemistry and Natural …, 2017).
pIC50: −log10 of the molar value.

Tests used:
[1] = biological target: T1, HsTIM (human triosephosphate isomerase) (Homo sapiens, UniProt P60174); assay: residual activity after […] h preincubation; alpha-GPDH coupled assay, NADH at […] nm; assay type: biochemical; conditions: 5 µg/mL enzyme preincubated with compound 2 h at 36 °C, 10% DMSO, 10 mM EDTA, pH 7.4; assay 1 mM GAP, 25 °C
T1 construct: gene TPI1
T1 sequence (P60174 2-249): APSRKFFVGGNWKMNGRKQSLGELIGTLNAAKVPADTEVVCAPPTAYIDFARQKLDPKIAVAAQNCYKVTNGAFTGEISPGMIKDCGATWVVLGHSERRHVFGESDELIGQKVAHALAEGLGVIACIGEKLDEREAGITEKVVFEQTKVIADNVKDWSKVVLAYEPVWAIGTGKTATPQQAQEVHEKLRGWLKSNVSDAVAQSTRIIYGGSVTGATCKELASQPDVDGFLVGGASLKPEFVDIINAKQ

[2] = biological target: T2, TbTIM (triosephosphate isomerase from Trypanosoma brucei) (Trypanosoma brucei, UniProt P04789); assay: as above; assay type: biochemical; conditions: read-out: I50
T2 construct: homodimer; 250 residues per monomer
T2 sequence (P04789 whole entry): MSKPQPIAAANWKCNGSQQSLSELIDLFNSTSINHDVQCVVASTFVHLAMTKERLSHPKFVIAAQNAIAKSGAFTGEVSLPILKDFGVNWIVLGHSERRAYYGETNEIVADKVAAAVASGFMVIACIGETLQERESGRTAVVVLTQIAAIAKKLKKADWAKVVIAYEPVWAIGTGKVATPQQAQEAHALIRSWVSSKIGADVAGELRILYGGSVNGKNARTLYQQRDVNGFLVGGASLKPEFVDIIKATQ

| SMILES | % inactivation at 100 μM [1] | pIC50 [2] |
| --- | --- | --- |
| COC(=O)Nc1nc2cc(Oc3cccc4ccccc34)ccc2[nH]1 [compound 1, Methyl(5-(naphthalen-1-yloxy)-1H-benzimidazol-2-yl)carbamate] | 12% | 4.08 |
| COC(=O)Nc1nc2cc(Oc3ccc(Cl)c4ccccc34)ccc2[nH]1 [compound 2, Methyl(5-((4-chloronaphthalen-1-yl)oxy)-1H-benzimidazol-2-yl)carbamate] | 23% | 4.09 |
| CSc1nc2ccc(C(=O)N/N=C/c3ccc([N+](=O)[O-])o3)cc2[nH]1 [compound 3, (E)-2-(Methylthio)-N′-((5-nitrofuran-2-yl)methylene)-1H-benzimidazole-5-carbohydrazide] |  | 4.14 |
